Assay results published in US12234477B2, “Scalable primate pluripotent stem cell aggregate suspension culture” (ViaCyte, Inc., priority 2008, dated 2025).
“Also recorded” adds a separate entry of the source.

How the values were obtained:
[1] = test system: BG02 hESCs; assay: Proliferation of hESCs growing in conditioned medium (CM) with AG825; format: cell-based
From the text: FIGS. 6A-6F depict the inhibition of proliferation of BG02 cells grown in conditioned media (CM). […] The mean and range of normalized relative intensity is plotted (right).
(§1) Colony and cell-counting assays confirmed that LongR3-IGF1 and HRG played the major roles in self-renewal and proliferation in the context of one of the embodiments of the present invention (FIG. 6D, FIG. 6E). Phosphorylation of IGF1R, IR, […], ErbB2, and ErbB3 was also observed in both steady-state DC-HAIF cultures, and in starved cultures that were pulsed with DC-HAIF (FIG. 6F).

[2] = biological target: T1, ErbB2 (Homo sapiens, UniProt P04626); assay: Western blotting of ErbB2 autophosphorylation in starved/heregulin pulsed hESCs in DC-HAIF; format: cell-based
T1 construct: endogenous in cells; host or cells: human embryonic stem cells (hESCs) grown in DC-HAIF
From the text: as §1

[3] = test system: BG01v cells; assay: Inhibition of proliferation of BG01v cells by ErbB tyrosine kinase inhibitors, alkaline phosphatase staining; format: cell-based
Protocol: To examine the effect of known inhibitors of ErbB tyrosine kinases in hESCs, BG01v cells were plated in 6 well trays on […]™ diluted at 1:1000, in defined culture medium (DC) containing 100 ng/mL LongR3-IGF1, 8 ng/mL FGF2 and 1 ng/mL Activin A. On the next day, DMSO (carrier control), 50 nM-20 μM AG1478 (an ErbB1 inhibitor), or 100 nM-20 μM AG879 (an ErbB2 inhibitor) was added with fresh medium. The cells were cultured for an additional 5 days, with daily media changes. The cultures were then fixed and stained for alkaline phosphatase activity.

[4] = test system: R1 mouse ES cells; assay: Inhibition of ErbB1 and ErbB2 signaling in mouse ES cells, alkaline phosphatase staining; format: cell-based
Protocol: AG1478 and AG879 were used to examine the role of HRG/ErbB signaling in mouse ES cells. R1 mouse ES cells were maintained in standard conditions in DMEM, 10% FBS, 10% KSR, 0.5 U/mL penicillin, 0.5 U/mL streptomycin, 1×NEAA, 1 mM sodium pyruvate, 1000 U/mL LIF (ESGRO), 0.1 mM β-ME, and were passaged with 0.5% trypsin/EDTA. 2×10^5 cells/well were plated in 6 well trays on […]™ diluted at 1:1000. The day after plating, DMSO (carrier control), 1-50 μM AG1478, or 1-50 μM AG879 was added with fresh medium. The cells were cultured an additional 8 days, with daily media changes. The cultures were then fixed and stained for alkaline phosphatase activity.

[5] = test system: BG02 cells; assay: Suspension aggregates of BG02 cells in DC-HAIF with and without Y27632, cell counting; format: cell-based, human
Protocol: To attenuate the loss of cells after initial passaging in suspension, an inhibitor of apoptosis was added to the medium. Cells were passaged as in Example 12, except that Y-27632, an inhibitor of p160-Rho-associated coiled-coil kinase (ROCK), was added to the medium.
Suspension aggregates of BG02 cells were formed by seeding 2×10^6 single cells in 6-well dishes in 3 mL DC-HAIF medium, at 100 rpm on a rotating platform in an incubator (Table 4, Experiment A). 10 μM Y27632 ROCK inhibitor was added to test wells for the course of the experiment and the cultures observed daily and counted after 24 hours (day 1) and after 4 or 5 days. […] Cell counting confirmed that more viable cells were present in the presence of inhibitor (Table 4, Experiment A). This difference in cell number persisted throughout the course of the culture period, with more cells also observed on day 4, compared to cultures without inhibitor. As with previous suspension culture experiments, cells exposed to Y27632 could also be serially passaged, and maintained in an undifferentiated state (not shown). […]
Because of the enhanced survival and aggregation observed in the presence of Y27632, an experiment was performed to examine if it was possible to reduce the number of cells used to seed suspension cultures (Table 4, Experiment C). […] To determine if addition of a ROCK inhibitor would allow cell seeding at lower densities, a range of cell concentrations (from about 2×10^6 total cells down to about 1×10^5 total cells was used to seed suspension cultures in 6-well trays cells in 3 mL DC-HAIF. 10 μM Y27632 was added to all conditions, and the cell number and viability assessed on day 5. Successful aggregation and expansion was observed even at low seeding densities. An approximately 13 fold expansion of viable cells was observed even in cultures that were only seeded with 1×10^5 cells. Inhibition of ROCK with Y27632 therefore facilitated initial survival of hESCs at much lower densities in this suspension system.

[6] = test system: hES-derived pancreatic epithelial and endocrine type cells; assay: Re-aggregation of dissociated stage 4 or stage 5 adherent cultures; format: cell-based, human; conditions: 10 μM
Protocol: Adherent cultures at either stage 4 (about d10-d14 into the differentiation protocol; pancreatic epithelial and endocrine type cells) or stage 5 (about day 16 to day 30 into the differentiation protocol; endocrine precursor and endocrine cells) were similarly dissociated into single cells, counted, and pelleted. The cell pellet was then resuspended in DMEM CMRL supplemented Pen/Strep and GLUTAMAX™, and 1X B27-supplement and DNase (50-100 μg/mL, Roche Diagnostics) and 0-2% FBS. […] Cells were equally distributed into 6-well plates and placed on a rotating platform at 100 rpm to 140 rpm form 4 hours to overnight substantially as described above.

[7] = test system: ES cells; assay: Suspension cultures in various media, cell counting; format: cell-based; conditions: in all conditions (HAIF, HAI, HI)
Protocol: To determine if suspensions of ES cells could be cultured in the absence of FGF2 and/or Activin A, ES cells were cultured in a variety of media, with and without these factors. […] In addition, the cells in each media were successfully passaged with no morphological signs of differentiation.

[8] = test system: hESCs; assay: hESC proliferation at physiological levels of insulin and IGF1, cell counting; format: cell-based, human; conditions: titrated about 0.2 to about 200 ng/mL, counting after 5 days
Protocol: Essentially all of the reported culture conditions for hESCs to date include supraphysiological levels of insulin, which can stimulate both IR and IGF1R. To distinguish the activities that insulin and insulin-substitutes exert, compared to IGF1, hESCs are cultured in defined media conditions in physiological levels of these growth factors. The concentrations of insulin and IGF1 are titrated from about 0.2 to about 200 ng/mL and cell proliferation is monitored by counting cells after 5 days. Cultures that expand successfully are serially passaged 5 times.

[9] = test system: hES-derived cell aggregates; assay: QPCR of endocrine progenitor markers after stage 3 with different noggin concentrations; format: cell-based, human; conditions: lower concentration (25 ng/mL vs 50 ng/mL) in stage 3; any given cell density
Protocol: Human ES cell aggregates and hES-derived cell aggregates, including d0 cell aggregates produced directly in differentiation media, were generated substantially as described above. After about five (5) days of differentiation through stages 1 and 2, the differentiating cell aggregates were pooled and re-aliquoted into individual wells at different seeding densities, e.g., a 28 mL suspension of foregut endoderm stage cell aggregate suspension was seeded or re-aliquoted at 4, 6, 8 or 10 mL per well (a 2.5-fold range of cell densities). This cell distribution was carried out in duplicate and one set of wells was fed with a stage 3 media (DMEM/PenStrep/GLUTAMAX™+1% B27 supplement (vol/vol)+0.25 uM KAAD-cyclopamine+3 nM TTNPB) containing noggin at 50 ng/mL and the other set of wells contained noggin at 25 ng/mL. Stage 3 proceeded for 3 days with daily media exchange. Cell samples were taken in duplicate for real-time QPCR analysis at the end of the three days of stage 3 (or about day 8) and again at after stage 4 (or about day 14).

[10] = morphology, alkaline phosphatase activity

T1 sequence (P04626 23-1255): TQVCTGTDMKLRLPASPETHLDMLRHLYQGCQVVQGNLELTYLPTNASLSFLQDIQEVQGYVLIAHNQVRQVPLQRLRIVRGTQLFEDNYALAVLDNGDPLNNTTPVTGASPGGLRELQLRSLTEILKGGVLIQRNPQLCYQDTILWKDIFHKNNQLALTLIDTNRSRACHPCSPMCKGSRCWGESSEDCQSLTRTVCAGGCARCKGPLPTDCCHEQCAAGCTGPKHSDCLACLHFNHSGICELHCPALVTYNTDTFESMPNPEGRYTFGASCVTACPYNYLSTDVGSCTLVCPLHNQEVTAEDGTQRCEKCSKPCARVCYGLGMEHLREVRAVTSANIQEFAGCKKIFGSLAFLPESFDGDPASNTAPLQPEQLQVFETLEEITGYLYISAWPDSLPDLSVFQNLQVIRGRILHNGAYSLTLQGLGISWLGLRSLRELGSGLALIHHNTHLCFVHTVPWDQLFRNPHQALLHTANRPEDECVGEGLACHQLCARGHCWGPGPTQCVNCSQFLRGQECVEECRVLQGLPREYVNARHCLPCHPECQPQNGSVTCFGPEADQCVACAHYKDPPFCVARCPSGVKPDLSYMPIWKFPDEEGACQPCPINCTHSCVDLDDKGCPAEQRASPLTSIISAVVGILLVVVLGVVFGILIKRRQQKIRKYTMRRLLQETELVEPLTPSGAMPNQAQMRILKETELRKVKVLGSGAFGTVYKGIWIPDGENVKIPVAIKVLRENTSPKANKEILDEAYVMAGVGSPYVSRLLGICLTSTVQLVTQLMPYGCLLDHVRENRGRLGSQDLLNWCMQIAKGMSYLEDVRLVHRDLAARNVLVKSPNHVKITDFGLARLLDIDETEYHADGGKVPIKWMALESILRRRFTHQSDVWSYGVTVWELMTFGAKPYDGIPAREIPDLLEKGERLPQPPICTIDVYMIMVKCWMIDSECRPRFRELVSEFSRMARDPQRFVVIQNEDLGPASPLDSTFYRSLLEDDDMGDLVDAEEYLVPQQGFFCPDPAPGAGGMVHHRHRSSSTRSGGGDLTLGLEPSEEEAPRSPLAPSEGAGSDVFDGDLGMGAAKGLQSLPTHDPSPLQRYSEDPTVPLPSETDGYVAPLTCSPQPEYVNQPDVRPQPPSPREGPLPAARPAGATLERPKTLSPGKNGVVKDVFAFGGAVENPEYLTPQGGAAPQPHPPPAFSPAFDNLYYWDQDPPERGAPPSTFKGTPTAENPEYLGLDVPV

COc1cc(/C=C(\C#N)C(N)=O)cc(CSc2nc3ccccc3s2)c1O [AG825]
cell death [1]: without widespread cell death
proliferation of hESCs ([1]; 50 μM): significantly inhibited proliferation
autophosphorylation of ErbB2 at tyrosine-1248 [2]: inhibited autophosphorylation of ErbB2 at tyrosine-1248; also recorded: inhibits ErbB2 Y1248 phosphorylation

CC(C)(C)c1cc(/C=C(\C#N)C(N)=S)cc(C(C)(C)C)c1O [AG879]
cell growth ([3]; 5 μM, 5 days): substantially inhibited cell growth; also recorded: substantially slowed cell growth
cell death ([3]; 20 μM): caused cell death
differentiation of cultures grown in inhibitor [3, 10]: did not appear to differentiate
proliferation ([4]; 20 μM, 8 days): may have slowed proliferation
cell growth ([4]; 50 μM, 8 days): substantially inhibited cell growth
concentration required to inhibit proliferation, mESCs relative to BG01v cells ([4]; mESCs vs BG01v cells grown in defined conditions): ~10 ×
differentiation of mESCs grown in inhibitor [4, 10]: did not appear to differentiate

COc1cc2ncnc(Nc3cccc(Cl)c3)c2cc1OC [AG1478]
effect on cell proliferation ([3]; 50 nM-20 μM, 5 days): neither DMSO nor AG1478 (50 nM-20 μM) had an apparent affect on cell proliferation; also recorded: did not appear to affect proliferation
effect on cell proliferation ([4]; 1-50 μM, 8 days, 10% FBS, 10% KSR, LIF): no apparent affect on cell proliferation; also recorded: did not overtly inhibit proliferation

C[C@@H](N)[C@H]1CC[C@H](C(=O)Nc2ccncc2)CC1 [Y27632]
initial survival and aggregation of hESCs in suspension culture ([5]; 10 μM, compared to medium without inhibitor): much larger aggregates were formed; also recorded: enhanced initial survival and aggregation of hESCs; also recorded: enhancement of hESC aggregation
cell number when the aggregates were split again ([5]; Expt. A, compared to cultures without inhibitor): almost twice as many cells were observed
differentiation state, RT-PCR of pluripotency markers ([5]; suspension culture in the presence of Y27632): remained undifferentiated
cell survival [6]: supported cell survival
yield of cells generated by day 5 [7]: increased the yield of cells

IGF1: insulin-like growth factor
expansion of hESC cultures [8]: support the expansion of hESC cultures

insulin: protein that binds to the insulin receptor
expansion of hESC cultures [8]: do not

B1: noggin: recombinant human Noggin, BMP antagonist (protein, UniProt Q13253 28-232, looked up)
Noggin: QHYLHIRPAPSDNLPLVDLIEHPDPIFDPKEKDLNETLLRSLLGGHYDPGFMATSPPEDRPGGGGGAAGGAEDLAELDQLLRQRPSGAMPSEIKGLEFSEGLAQGKKQRLSKKLRRKLQMWLWSQTFCPVLYAWNDLGSRFWPRYVKVGSCFSKRSCSVPEGMVCKPSKSVHLTVLRWRCQRRGGQRCGWIPIQYPIISECKCSC
endocrine progenitor cell types, expression of NGN3 and NKX2-2 [9]: reduced expression of NGN3 and NKX2-2
